According to PMC10880893, “Structures of the holoenzyme TglHI required for 3-thiaglutamate biosynthesis” (Structure (London, England : 1993), 2023):
“Also recorded” adds a separate entry of the source.

What was measured:
TglHI = format: biochemical, Pseudomonas syringae pv. maculicola ES4326
Protocol: TglHI protein and H2O2 (or EDTA) were initially incubated together for 10 min, and then protein was purified by size exclusion chromatography to remove excess H2O2 (or EDTA). The reaction between the H2O2 (EDTA)-treated TglHI and minimum substrate analog of TglA-Cys, β-NAD^+, and FDH was then monitored for the levels of NADH.
(A) In vitro activity assay of the modification of the minimum substrate analog of TglA-Cys by TglHI with treatment of H2O2 in the presence of formate dehydrogenase (FDH) and β-NAD+. NADH formation was […]
(B) In vitro activity assay of the modification of the minimum substrate analog of TglA-Cys by TglHI with […]
treatment of EDTA (5 mM, 10 mM, 20 mM).

[1] = molecular target: TglHI holoenzyme (Pseudomonas syringae pv. maculicola ES4326); assay: ITC
[2] = Solubility on (co-)expression in E. coli, SDS-PAGE; format: physicochemical; conditions: expression in E. coli BL21, SDS-PAGE
Protocol: The tglH (NCBI accession No. WP_007252215.1) and tglI (NCBI accession No. WP_007252216.1) genes from Pseudomonas syringae pv. maculicola (P. syringae) ES4326 were codon-optimized for expression in E. coli (the optimized sequences are provided in KRT) and subcloned into the pRSFDuet-1 vector. E. coli BL21 (DE3) cells containing the tglHI-pRSFDuet-1 plasmid were grown in Luria broth (LB) medium at 37 °C and 220 rpm to an optical density at 600 nm (OD600) of 0.6. Fe-containing TglHI proteins were obtained by the addition of 1 mM (NH4)2Fe(SO4)2 in LB medium. Subsequently, cultures were induced at 16 °C with the addition of isopropyl β-D-thiogalactoside (IPTG) at a final concentration of 0.2 mM. […] After cell lysis, lysates were centrifuged at 18000 rpm for 30 min to obtain the supernatant containing the target protein. […] The purity of the purified proteins was assessed using sodium dodecyl sulfate‒polyacrylamide gel electrophoresis (SDS‒PAGE) and they were flash-frozen with liquid nitrogen for subsequent crystallization and biochemical analysis. […]
(B) The tglH and tglI genes were inserted into the pRSF-DuET-1 vector for co-expression, and the complexes were purified through nickel affinity columns. […] The proteins were then eluted and analyzed by SDS-PAGE. […]

Which “TglHI activity after treatment with EDTA” value (TglHI; EDTA 5 mM, 10 mM, 20 mM, 10 min incubation, then size exclusion chromatography) does the source give for O=C(O)CN(CCN(CC(=O)O)CC(=O)O)CC(=O)O [EDTA] here?
Its value is “merely attenuated the enzymatic activity of TglHI instead of abolishing the activity”.

And the “effect of higher EDTA concentrations on TglHI” value (TglHI; higher concentrations than 5, 10, 20 mM)?
Its value is “precipitation”.

With OO [H2O2] as the molecule, how does the “TglHI activity after pretreatment with H2O2” value (TglHI; 10 min incubation, then size exclusion chromatography, NADH at 340 nm) read?
Its value is “background; also recorded: loss of TglHI activity”.

For “TglA-Cys analog containing the C-terminal 19 amino acids (peptide)”, which Kd [1] is on record?
Its Kd is 8.5 µM.

B1: TglI: recruitment subunit with RRE domain (protein)
chain: MEAEQVWKLWRRVLRDERLQAQLFSATDATHWLSGFSESESKILSVYAQQFDRVKWFVENYQFRLVNSFLNALETGAPLSLRALLHINVDLNAQSKAFLRDRQWRDYGPQVYTYCEDVLGFLAEADELQGYPEILDLMRLERESVRLYRGLVDPESLPADNRYQRTSMARLYETRFALSGWLRQKDQLGLTRLPESTEHVLIYLPTLQARHKFTLINAQAARLYNCLEQPQSAAGLFMLINSDSASVPGSADLALLDRLEQLNAIRKPL
Which “solubility of protein / complex” value [2] does the source give for B1 here?
The value was “insoluble when expressed alone and only soluble when co-expressed with TglH”.

B2: TglH: Fe-dependent DUF692 catalytic subunit (protein)
chain: MPDFVKPAPIGVGIQYNPEILDWFPFEDIQVDILEILLDNIMAPMDGPQIIKPSAQAMIERLGQKFTLLAHSNYGCDFGFSALEETAAVQRHVPLAKMLNSPWVANHCFYGDQSWLDIWSSPIQFSAAEVARCADRAQSLQTLYGMPLAHENAAYYLECPGAEMREAEFLARLVQRSGTFLHLDLHNIYTNHLNLKGFDLKDYMDTLPLDKVISVHLAGGSWHGGLYHDWHDACVPEPVWDLYEDLLSRAQPSAVILEYQGQAHHAQTRIMDASDESMIVRDVQRAQAIWSRYNRHPQERQYGS
With B2 as the molecule, how does the “solubility of protein / complex” value [2] read?
Its value is “expressed partially in soluble form”.
